Source: paper PMC6372667 (Experimental & Molecular Medicine, 2019)
Where two headings read alike, the source gives them in different places.

Tests used:
[1] = test system: SH-SY5Y, C6, NIH3T3 and B16F10 cell lines; assay: MTT cytotoxicity assay, all cell lines tested; type: cell-based
Method: (§1) Cytotoxicity was assessed using the MTT assay. Briefly, the cells were seeded into a 96-well plate at a density of 1×10^5 cells per well in 100 µL of corresponding media and incubated at 37 °C in an incubator under 5% CO2 tension for 24 h. The culture media were then replaced with 100 µL of fresh serum-free media in the presence of varied concentrations of pterosin derivatives, and cells were incubated for an additional 24 h. The control was treated with an equal amount of DMSO present in the assay for a 5 mM concentration. Then, 100 µL of MTT solution (0.5 mg/mL in Phosphate Buffered Saline (PBS)) was added to each culture. To measure the proportion of surviving cells, the media were replaced with 100 µL of DMSO 2 h after the administration of MTT solution. The absorbance was measured at 570 nm using a spectrophotometric plate reader (Molecular Devices, Sunnyvale, CA, USA).

C6 rat glial cells = assay: MTT cytotoxicity assay, C6; type: cell-based; conditions: 24 h
Method: as §1

B16F10 mouse melanoma = assay: MTT cytotoxicity assay, B16F10; type: cell-based; conditions: 24 h
Method: as §1

horse serum BChE [2] = target: T1, horse serum BChE (Equus caballus, UniProt P81908); assay: In vitro cholinesterase enzyme assay (Ellman), BChE; type: biochemical
T1 construct: horse serum BChE (EC 3.1.1.8); purchased Sigma-Aldrich Co; host or cells: horse serum
Excerpt: (§2) BACE1 (human recombinant β-secretase) ([…]) and the BACE1 FRET (fluorescence resonance energy transfer) assay kit Red were purchased from ThermoFisher Scientific (P2985; Waltham, MA, USA). […] For the cell culture experiment, Dulbecco’s modified Eagle’s medium (DMEM), Opti-MEM, fetal bovine serum (FBS), and penicillin/streptomycin were obtained from Capricorn Scientific (Ebsdorfergrund, Germany). β-secretase inhibitor III (β-SI) was purchased from Calbiochem (Darmstadt, Germany). The protease inhibitor mixture (a mixture of AEBSF, pepstatin A, E-64, bestain, leupeptin, and aprotinin) was purchased from Sigma-Aldrich (St. Louis, MO, USA). Enzyme-linked immunosorbent assay (ELISA) kits for Aβ40 and Aβ42 were obtained from IBL (Kunma, Japan). All chemicals and solvents used were reagent grade, purchased from commercial sources, and used as received.
(§3) The inhibitory activities of pterosin derivatives against cholinesterases were measured using the method developed by Ellman et al.[32]. The reaction mixture contained 140 μL of sodium phosphate buffer (pH 8.0), 20 μL of test sample solution (final concentration of the compound 100 μM), and 20 μL of AChE or BChE solution, mixed and incubated for 15 min at room temperature. […] The reactions were initiated following the addition of 10 μL of DTNB and 10 μL of acetyl thiocholine iodide for the AChE assay or butyryl thiocholine chloride for the BChE assay in 96-well microplates, which were incubated for 15 min.

[3] = test system: NIH3T3 mouse embryo fibroblasts; assay: MTT cytotoxicity assay, NIH3T3; type: cell-based; conditions: 24 h
Method: as §1

[4] = test system: SH-SY5Y human neuroblastoma; assay: MTT cytotoxicity assay, SH-SY5Y; type: cell-based; conditions: 24 h
Method: as §1

[5] = target: T2, BACE1 (human recombinant β-secretase) (Homo sapiens, UniProt P56817); assay: In vitro BACE1 FRET enzyme assay; type: biochemical; conditions: mean ± S.D. of three experiments
Excerpt: as §2
The BACE1 FRET assay was carried out according to the manufacturer’s instructions with slight modifications as previously described. The assay was performed in a […] black plate using a multi-pipette.

Electric eel AChE [6] = target: T3, Electric eel AChE (Electrophorus electricus, UniProt O42275); assay: In vitro cholinesterase enzyme assay (Ellman), AChE; type: biochemical
T3 construct: purchased Sigma-Aldrich Co
Excerpt: as §2, §3

horse serum BChE [7] = target: T1, horse serum BChE; assay: Kinetic analysis of BChE inhibition (Dixon and Lineweaver−Burk plots); type: biochemical; conditions: for Inhibition type BChE: Dixon and Lineweaver−Burk plots; for Ki: determined by Dixon plot, read-out: Ki BChE
Method: (§4) The Ki was determined by interpretation of the Dixon plot, with the value of the x-axis intercept taken as −Ki.
Dixon plots for BChE inhibition by pterosin derivatives. (2S,3R)-Pterosin C (A), (2R,3R)-pterosin C (B), and (2R)-pterosin B (C) were tested in the presence of substrate concentrations of 0.2 mM (●), 0.4 mM (○), and 0.8 mM (▼).
Dixon plots for BChE inhibition by pteroside derivatives. (2R)-pteroside B (A), (2R,3R)-pteroside C (B), and (3S)-pteroside D (C) were tested in the presence of substrate concentrations of 0.2 mM (●), 0.4 mM (○), and 0.8 mM (▼). Lineweaver-Burk plots for BChE inhibition were generated with inhibitor concentrations of 0 µM (Δ), 4 µM (▼), 20 µM (○), and 100 µM (●) for (2R)-pteroside B (D); 0 µM (Δ), 0.8 µM (▼), 4 µM (○), and 20 µM (●) for (2R,3R)-pteroside C (E) and (3S)-pteroside D (F).

in vitro = in vitro ADME; conditions: for BBB permeation class: classified by Pe, given in words; for Papp at 4 h, 25 µg/mL: pig, PAMPA, pH 7.4, 25 °C, mean ± SD of quadruple experiments, read-out: PAMPA-BBB permeability Pe
Method: PAMPA (parallel artificial membrane permeation assay) was used as a high-throughput assay to predict BBB permeation. Porcine polar brain lipid (PBL) was used as an artificial membrane to predict BBB permeation. Initially, the test compound was dissolved in DMSO at 5 mg/mL. This compound stock solution (10 µL) was diluted 200-fold in a universal buffer at pH 7.4 and mixed with a multi 8-channel pipette to obtain the secondary stock solution (final concentration 25 µg/mL). The secondary stock solution (200 µL) was placed in the donor wells. The filter membrane was coated with PBL in dodecane (4 mL volume of 20 mg/mL PBL in dodecane), and 5 µL of BBB-1 lipid solution was spread on PBL by pipette. The acceptor well was filled with […] of Acceptor Sink Buffer. The acceptor filter plate was cautiously positioned on the donor plate to assemble a “sandwich” (comprising an aqueous acceptor, artificial lipid membrane and aqueous donor with test compound on the top, middle and bottom, respectively). The test compound diffuses from the donor well to the acceptor well through the lipid membrane. After 4 h of incubation at pH 7.4 and 25 °C, the concentration of the compound in the acceptor, donor, reference and blank wells was estimated with a UV plate reader, Epoch Microplate Spectrophotometer (BioTek Instruments, Inc., Winooski, VT, USA). […] Samples were analyzed in quadruplets, and the average of the four runs was reported. To monitor the consistency of the analysis set, quality control standards were run with each sample set.
PAMPA-BBB, an in vitro artificial membrane permeability assay for the BBB, is one of the most reliable physicochemical screening tools in the early stage discovery of CNS-targeted drugs. The PAMPA-BBB system models the transcellular passive diffusion of chemicals across the BBB and measures strictly passive transport mechanisms via an artificial lipid membrane on effective permeability (Pe, cm/s).

[8] = target: T2, BACE1 (human recombinant β-secretase); assay: Kinetic analysis of BACE1 inhibition (Dixon and Lineweaver−Burk plots); type: biochemical; conditions: for Inhibition type BACE1: Dixon and Lineweaver−Burk plots; for Ki: determined by Dixon plot, read-out: Ki BACE1
Method: as §4
Dixon plots for BACE1 inhibition by pterosin derivatives.
Dixon plots for BACE1 inhibition by pteroside derivatives.

Electric eel AChE [9] = target: T3, Electric eel AChE; assay: Kinetic analysis of AChE inhibition (Dixon and Lineweaver−Burk plots); type: biochemical; conditions: for Inhibition type AChE: Dixon and Lineweaver−Burk plots; for Ki: determined by Dixon plot, read-out: Ki AChE
Method: as §4
Dixon plots for AChE inhibition by pterosin derivatives. (2S,3R)-Pterosin C (A), (2R,3R)-pterosin C (B), and (2R)-pterosin B (C) were tested in the presence of substrate concentrations of 0.1 mM (●), 0.3 mM (○), and 0.6 mM (▼). Lineweaver-Burk plots for AChE inhibition were generated with inhibitor concentrations of 0 µM (Δ), 4 µM (▼), 20 µM (○), and 100 µM (●) for (2S,3R)-pterosin C (D) and (2R,3R)-pterosin C (E); and 0 µM (Δ), 2 µM (▼), 10 µM (○), and 50 µM (●) for (2R)-pterosin B (F).
Dixon plots for AChE inhibition by pteroside derivatives. (2R)-pteroside B (A), (2R,3R)-pteroside C (B), and (3S)-pteroside D (C) were tested in the presence of substrate concentrations of 0.1 mM (●), 0.3 mM (○), and 0.6 mM (▼). Lineweaver-Burk plots for AChE inhibition were generated with inhibitor concentrations of 0 µM (Δ), 0.8 µM (▼), 4 µM (○), and 20 µM (●) for (2R)-pteroside B (D), (2R,3R)-pteroside C (E), and (3S)-pteroside D (F).

BACE1 = conditions: cited from earlier work
[10] = parameters: method as in PMID 23565574; conditions: PAMPA-BBB ref 49; cited from earlier work
[11] = test system: aged triple transgenic mouse models of AD (3xTg-AD); conditions: 25 mg/kg i.p. every 48 h for 3 months, mice 21–24 months old ref 48; cited from earlier work
BChE = test system: BChE; parameters: method as in PMID 18274286; conditions: cited from earlier work
AChE = conditions: cited from earlier work
mouse models of diabetes = test system: mouse models of diabetes; parameters: method as in PMID 23069626; conditions: cited from earlier work
[12] = test system: mouse model of osteoarthritis; parameters: method as in PMID 27009967; conditions: 15 μL of 900 μM intra-articular, three times per week, 8–13 weeks ref 28; cited from earlier work
[13] = mean ± S.D. of three experiments, read-out: IC50 BChE
[14] = mean ± S.D. of three experiments, read-out: IC50 AChE
[15] = oral 100 mg/kg/day for 4 weeks ref 29, 30

T1 sequence (P81908 whole entry): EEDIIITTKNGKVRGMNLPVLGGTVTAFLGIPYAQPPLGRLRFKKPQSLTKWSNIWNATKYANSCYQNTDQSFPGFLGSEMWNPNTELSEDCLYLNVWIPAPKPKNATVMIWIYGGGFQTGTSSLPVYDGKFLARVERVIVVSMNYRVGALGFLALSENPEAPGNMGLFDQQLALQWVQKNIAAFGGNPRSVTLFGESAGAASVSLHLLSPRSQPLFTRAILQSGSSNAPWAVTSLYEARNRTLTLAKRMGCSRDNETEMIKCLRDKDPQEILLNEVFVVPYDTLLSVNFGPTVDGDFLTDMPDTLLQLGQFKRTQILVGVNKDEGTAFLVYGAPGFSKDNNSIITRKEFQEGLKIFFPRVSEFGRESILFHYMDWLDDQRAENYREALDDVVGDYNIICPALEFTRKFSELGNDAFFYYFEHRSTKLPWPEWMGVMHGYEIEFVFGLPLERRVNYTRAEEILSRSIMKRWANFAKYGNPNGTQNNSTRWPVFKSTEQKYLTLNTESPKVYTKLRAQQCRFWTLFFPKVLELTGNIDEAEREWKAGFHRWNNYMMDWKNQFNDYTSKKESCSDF
T3 sequence (O42275 24-633): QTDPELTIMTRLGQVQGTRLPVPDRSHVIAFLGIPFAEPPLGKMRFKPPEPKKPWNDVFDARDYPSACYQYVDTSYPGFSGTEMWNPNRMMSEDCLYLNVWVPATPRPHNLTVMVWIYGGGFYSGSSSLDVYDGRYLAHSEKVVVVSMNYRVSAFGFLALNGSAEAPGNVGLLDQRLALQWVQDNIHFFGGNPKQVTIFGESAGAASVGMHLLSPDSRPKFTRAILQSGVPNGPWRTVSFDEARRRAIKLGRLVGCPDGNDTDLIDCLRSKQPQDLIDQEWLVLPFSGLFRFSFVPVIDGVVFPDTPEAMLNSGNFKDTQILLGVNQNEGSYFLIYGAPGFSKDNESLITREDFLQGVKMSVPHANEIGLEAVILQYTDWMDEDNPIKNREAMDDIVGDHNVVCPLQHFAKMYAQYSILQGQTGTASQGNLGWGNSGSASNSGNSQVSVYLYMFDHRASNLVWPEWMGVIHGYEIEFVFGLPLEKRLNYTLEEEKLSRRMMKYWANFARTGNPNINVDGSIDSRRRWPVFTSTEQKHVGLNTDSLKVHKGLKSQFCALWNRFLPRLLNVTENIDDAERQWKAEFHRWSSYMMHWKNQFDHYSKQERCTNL
T2 sequence (P56817 46-501): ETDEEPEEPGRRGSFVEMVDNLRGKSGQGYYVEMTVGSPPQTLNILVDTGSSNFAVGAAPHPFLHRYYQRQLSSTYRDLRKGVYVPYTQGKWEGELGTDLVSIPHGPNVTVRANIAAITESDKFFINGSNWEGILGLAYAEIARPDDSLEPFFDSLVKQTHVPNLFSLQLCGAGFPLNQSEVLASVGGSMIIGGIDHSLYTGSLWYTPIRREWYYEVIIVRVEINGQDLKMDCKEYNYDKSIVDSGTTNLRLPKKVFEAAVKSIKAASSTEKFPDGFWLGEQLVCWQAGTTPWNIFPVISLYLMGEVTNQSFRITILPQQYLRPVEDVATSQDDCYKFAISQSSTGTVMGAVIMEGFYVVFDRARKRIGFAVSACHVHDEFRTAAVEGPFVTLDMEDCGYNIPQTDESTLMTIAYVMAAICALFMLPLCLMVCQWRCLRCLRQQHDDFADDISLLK

Row | Compound | LD50, cell lines tested [1] | LD50 Based on MTT Assay, C6 (C6 rat glial cells) | LD50 Based on MTT Assay, B16F10 (B16F10 mouse melanoma) | IC50 (horse serum BChE [2]; [13]) | LD50 Based on MTT Assay, NIH3T3 [3] | LD50 Based on MTT Assay, SY-SY5Y [4] | IC50 [5] | IC50 (Electric eel AChE [6]; [14]) | BBB permeation class (in vitro; PAMPA-BBB) | further results
1 | Cc1cc2c(c(C)c1CCO)C(=O)C(C)(C)C2O (stereo in doubt) [(3R)-Pterosin D, (3R)-pterosin D] | above 5 mM | >5,000 µM | >5,000 µM | > 125 µM | >5,000 µM | >5,000 µM | 92.5 ± 7 µM | 68.7 ± 3.7 µM | – | IC50 BChE (horse serum BChE [2]; mean ± S.D. of three experiments): inactive at the concentrations tested
2 | Cc1cc2c(c(C)c1CCOC1OC(CO)C(O)C(O)C1O)C(=O)C(C)C2 [(2R)-Pteroside B, (2R)-pteroside B] | above 5 mM | >5,000 µM | >5,000 µM | 62 ± 0.71 µM | >5,000 µM | >5,000 µM | 18 ± 2.8 µM | 2.55 ± 0.23 µM | very low BBB permeability | Inhibition type BChE (horse serum BChE [7]): Mixed-type; Ki (horse serum BChE [7]): 22.6 µM; Papp at 4 h, 25 µg/mL (in vitro): 0.48 ± 0.29 ×10⁻⁶ cm/s; Inhibition type BACE1 [8]: Noncompetitive; Ki [8]: 23.1 µM; Inhibition type AChE (Electric eel AChE [9]): Mixed-type; Ki (Electric eel AChE [9]): 4.89 µM
3 | Cc1cc2c(c(C)c1CCOC1OC(CO)C(O)C(O)C1O)C(=O)C(C)(CO)C2 [(2S)-Pteroside A, (2S)-pteroside A] | above 5 mM | >5,000 µM | >5,000 µM | – | >5,000 µM | >5,000 µM | 84.6 ± 6 µM | – | – | –
4 | Cc1c(CCO)c(CO)cc2c1C(=O)[C@@H](C)C2 [(2S)-Pterosin P, (2S)-pterosin P] | above 5 mM | >5,000 µM | >5,000 µM | – | >5,000 µM | >5,000 µM | 67.1 ± 7.7 µM | – | high BBB permeation | IC50 (horse serum BChE [2]): 55.9 ± 5.6 µM; log Pe (in vitro; PAMPA-BBB): -5.10; Papp at 4 h, 25 µg/mL (in vitro): 7.92 ± 0.36 ×10⁻⁶ cm/s; IC50 (Electric eel AChE [6]): 17.8 ± 0.62 µM
5 | Cc1cc2c(c(C)c1CCOC1OC(CO)C(O)C(O)C1O)C(=O)C(C)(C)C2O [(3S)-Pteroside D, (3S)-pteroside D] | – | >5,000 µM | >5,000 µM | 19.3 ± 0.17 µM | >5,000 µM | 1,320 ± 86 µM | 10.7 ± 1.5 µM | 27.4 ± 1.2 µM | very low BBB permeability | Inhibition type BChE (horse serum BChE [7]): Mixed-type; Ki (horse serum BChE [7]): 19.7 µM; Inhibition type BACE1 [8]: Mixed-type; Ki [8]: 16.5 µM; Inhibition type AChE (Electric eel AChE [9]): Mixed-type; Ki (Electric eel AChE [9]): 23.1 µM
6 | CC#Cc1cncc(-c2ccc3c(c2)[C@@]2(N=C(C)C(N)=N2)[C@]2(CC[C@H](OC)CC2)C3)c1 [AZD3293] | – | – | – | – | – | – | – | – | – | Ki (BACE1): 0.0004 µM
7 | O=c1c(O)c(-c2ccc(O)c(O)c2)oc2cc(O)cc(O)c12 [Quercetin, quercetin] | – | – | – | – | – | – | – | – | – | log Pe [10]: approximately −7; Effect on AD pathology [11]: effectively ameliorated AD pathology and tauopathy; Influence on BChE activity (BChE): negligible influence; IC50 (AChE): […]
8 | Cc1cc2c(c(C)c1CCO)C(=O)C(C)(CO)C2 (stereo not drawn) [pterosin A] | – | – | – | – | – | – | – | – | – | Oral bioavailability (mouse models of diabetes; diabetes animal experiment ref 29, 30): good oral bioavailability; Adverse effects (mouse models of diabetes; [15]): no significant adverse effects; Effect on glucose intolerance and insulin resistance (mouse models of diabetes; [15]): effectively improving glucose intolerance and insulin resistance
9 | Cc1cc2c(c(C)c1CCO)C(=O)[C@H](C)C2 [pterosin B] | – | – | – | – | – | – | – | – | – | Adverse effects [12]: without adverse effects; Effect on osteoarthritis [12]: ameliorating osteoarthritis
